The test addresses BTK (Homo sapiens (Human), UniProt Q06187). Kind of test: Btk in vitro inhibitory activity (one of Method A TR-FRET, Method B electrophoretic mobility shift, Method C radiometric filter binding). Type of test: biochemical.
Setting [1] is: determined using one of the methods of Example 355a, 355b and 355c, read-out: BTK IC50.

Read-outs that look alike come from different tables or passages of the source.

BTK, sequence (Q06187 whole entry): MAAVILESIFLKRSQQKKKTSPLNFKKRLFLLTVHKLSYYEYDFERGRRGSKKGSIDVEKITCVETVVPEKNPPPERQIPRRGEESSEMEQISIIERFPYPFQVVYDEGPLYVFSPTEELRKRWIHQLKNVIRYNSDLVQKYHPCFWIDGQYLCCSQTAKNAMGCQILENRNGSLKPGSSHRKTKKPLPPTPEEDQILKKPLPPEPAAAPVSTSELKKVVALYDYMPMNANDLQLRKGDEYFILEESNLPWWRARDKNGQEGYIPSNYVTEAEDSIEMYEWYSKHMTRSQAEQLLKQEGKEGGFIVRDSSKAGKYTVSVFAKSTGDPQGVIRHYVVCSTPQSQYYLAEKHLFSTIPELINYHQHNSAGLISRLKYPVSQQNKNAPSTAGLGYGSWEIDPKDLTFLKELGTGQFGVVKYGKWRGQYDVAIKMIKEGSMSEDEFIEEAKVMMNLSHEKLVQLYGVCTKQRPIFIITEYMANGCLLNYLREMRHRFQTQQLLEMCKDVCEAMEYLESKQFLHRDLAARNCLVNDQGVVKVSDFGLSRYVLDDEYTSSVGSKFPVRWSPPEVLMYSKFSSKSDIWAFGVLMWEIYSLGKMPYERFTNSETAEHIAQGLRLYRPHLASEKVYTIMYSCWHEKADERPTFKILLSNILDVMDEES

In the case of `Cc1cc(Nc2nc(N3CCC[C@@H](NC(=O)N(C)C)C3)cnc2C(N)=O)sn1` [Example 187, (R)-5-(3-(3,3-dimethylureido)piperidin-1-yl)-3-(3-methylisothiazol-5-ylamino)pyrazine-2-carboxamide], the IC50 (commonly the concentration at which inhibition is half-maximal) fell in the range of 10 to 100 nM (Btk (IC50)) and 10 to 100 nM under setting [1].

In the case of `C=CC(=O)N1CCC(c2ccc(Nc3nc(N4CCC[C@@H](NC(=O)N5CCCCC5)C4)nnc3C(N)=O)cc2)CC1` [Example 340], the IC50 under setting [1] was below 10 nM. As to `NC(=O)c1ncc(N2CCC[C@@H](NC(=O)c3cncc(F)c3)C2)nc1Nc1ccc(C2CCN(C3CCCC3)CC2)cc1` [Example 305, (R)-3-(4-(1-cyclopentylpiperidin-4-yl)phenylamino)-5-(3-(5-fluoronicotinamido)piperidin-1-yl)pyrazine-2-carboxamide], the half-inhibitory concentration (IC50) is below 10 nM under setting [1] and below 10 nM (read-out: Btk (IC50)). As for `COc1ccc(C(=O)N[C@@H]2CCCN(c3cnc(C(N)=O)c(Nc4ccc(C5CCN(C(=O)CC#N)CC5)cc4)n3)C2)cc1` [Example 141, (R)-3-(4-(1-(2-cyanoacetyl)piperidin-4-yl)phenylamino)-5-(3-(4-methoxybenzamido)piperidin-1-yl)pyrazine-2-carboxamide], under setting [1], the 50% inhibitory concentration (IC50) is below 10 nM. As to `N#CCC(=O)N1CCC(c2ccc(Nc3nc(N4CCC[C@@H](NC(=O)N5CCCCC5)C4)nnc3C(N)=O)cc2)CC1` [Example 341, (R)-5-(4-(1-(2-cyanoacetyl)piperidin-4-yl)phenylamino)-3-(3-(piperidine-1-carboxamido)piperidin-1-yl)-1,2,4-triazine-6-carboxamide], the IC50 fell in the range of 10 to 100 nM. Also, the IC50 under setting [1] was below 10 nM. `COc1ccc(C(=O)N[C@@H]2CCCN(c3cnc(C(N)=O)c(Nc4ccc(N5CCCCC5)cc4)n3)C2)cc1` [Example 164, (R)-5-(3-(4-methoxybenzamido)piperidin-1-yl)-3-(4-(piperidin-1-yl)phenylamino)pyrazine-2-carboxamide]: the IC50 under setting [1] was below 10 nM. On to `CCN1CCN([C@@H]2CCCN(c3cnc(C(N)=O)c(Nc4ccc(C5(C)CCN(C6CC6)CC5)cc4)n3)C2)C1=O` [Example 276, (R)-3-(4-(1-cyclopropyl-4-methylpiperidin-4-yl)phenylamino)-5-(3-(3-ethyl-2-oxoimidazolidin-1-yl)piperidin-1-yl)pyrazine-2-carboxamide], for which the IC50 is, setting by setting: under setting [1], below 10 nM; (read-out: Btk (IC50)) below 10 nM. As for `CN1CCC(C(=O)N[C@@H]2CCCN(c3nnc(C(N)=O)c(Nc4ccc(C(=O)N5CCOCC5)cc4)n3)C2)CC1` [Example 31, (R)-3-(3-(1-methylpiperidine-4-carboxamido)piperidin-1-yl)-5-(4-(morpholine-4-carbonyl)phenylamino)-1,2,4-triazine-6-carboxamide], under setting [1], the IC50 was 10 to 100 nM.

`NC(=O)c1nnc(N2CCC[C@@H](NC(=O)c3ccccc3)C2)nc1Nc1ccc(C(=O)N2CCOCC2)cc1` [Example 5, (R)-3-(3-benzamidopiperidin-1-yl)-5-(4-(morpholine-4-carbonyl)phenylamino)-1,2,4-triazine-6-carboxamide]: the IC50 under setting [1] was below 10 nM. Still for that read-out and setting: in the case of `N#Cc1ccc(C(=O)N[C@@H]2CCCN(c3nnc(C(N)=O)c(Nc4ccc(C(=O)N5CCOCC5)cc4)n3)C2)cc1` [Example 7, (R)-3-(3-(4-cyanobenzamido)piperidin-1-yl)-5-(4-(morpholine-4-carbonyl)phenylamino)-1,2,4-triazine-6-carboxamide] it was 10 to 100 nM.

In the case of `CN1CCN([C@@H]2CCCN(c3cnc(C(N)=O)c(Nc4ccc(C5(C)CCN(C6CCCC6)CC5)cc4)n3)C2)C1=O` [Example 267, (R)-3-(4-(1-cyclopentyl-4-methylpiperidin-4-yl)phenylamino)-5-(3-(3-methyl-2-oxoimidazolidin-1-yl)piperidin-1-yl)pyrazine-2-carboxamide], the IC50 is below 10 nM under setting [1] and below 10 nM (read-out: Btk (IC50)). For the compound `COc1ccc(C(=O)N[C@@H]2CCCN(c3cnc(C(N)=O)c(Nc4ccc(C5CCNCC5)cc4F)n3)C2)cc1` [Example 162, (R)-3-(2-fluoro-4-(piperidin-4-yl)phenylamino)-5-(3-(4-methoxybenzamido)piperidin-1-yl)pyrazine-2-carboxamide], the IC50 under setting [1] is below 10 nM and the IC50 (read-out: Btk (IC50)) lay within 10 to 100 nM.

For `COc1ccc(C(=O)N[C@@H]2CCCN(c3cnc(C(N)=O)c(Nc4ccc(C5CCN(S(C)(=O)=O)CC5)cc4)n3)C2)cc1` [Example 143, (R)-5-(3-(4-methoxybenzamido)piperidin-1-yl)-3-(4-(1-(methylsulfonyl)piperidin-4-yl)phenylamino)pyrazine-2-carboxamide], the IC50 by setting is: (Btk (IC50)) 10 to 100 nM; under setting [1], 10 to 100 nM.

As for `CN(C)C(=O)N[C@@H]1CCCN(c2cnc(C(N)=O)c(Nc3ccc(C(C)(C)C(N)=O)cc3)n2)C1` [Example 198, (R)-3-(4-(1-amino-2-methyl-1-oxopropan-2-yl)phenylamino)-5-(3-(3,3-dimethylureido)piperidin-1-yl)pyrazine-2-carboxamide], the IC50 reads like this: under setting [1], 10 to 100 nM; (read-out: Btk (IC50)) 10 to 100 nM. In the case of `NC(=O)c1ncc(N2CCCC[C@@H](NC(=O)C3CC3)C2)nc1Nc1ccc(C2CCN(C3CCCC3)CC2)cc1` [Example 328, (R)-3-(4-(1-cyclopentylpiperidin-4-yl)phenylamino)-5-(3-(cyclopropanecarboxamido)azepan-1-yl)pyrazine-2-carboxamide], the IC50 by setting is: under setting [1], below 10 nM; (read-out: Btk (IC50)) below 10 nM. With `NC(=O)c1ncc(N2CCC[C@@H](NC(=O)C3CCCC3)C2)nc1Nc1ccc(C2CCN(C3CC3)CC2)cc1` [Example 310, (R)-5-(3-(cyclopentanecarboxamido)piperidin-1-yl)-3-(4-(1-cyclopropylpiperidin-4-yl)phenylamino)pyrazine-2-carboxamide], the concentration for half-maximal inhibition (IC50) runs as follows: under setting [1], 10 to 100 nM; (read-out: Btk (IC50)) 10 to 100 nM. Turning to `CCC(=O)N1CCC(c2ccc(Nc3nc(N4CCC[C@@H](NC(=O)c5ccc(OC)cc5)C4)cnc3C(N)=O)cc2)CC1` [Example 140, (R)-5-(3-(4-methoxybenzamido)piperidin-1-yl)-3-(4-(1-propionylpiperidin-4-yl)phenylamino)pyrazine-2-carboxamide], the IC50 under setting [1] was below 10 nM. As for `CN(C)Cc1ccc(Nc2nc(N3CCC[C@@H](NC(=O)N(C)C)C3)cnc2C(N)=O)cc1` [Example 193, (R)-3-(4-((dimethylamino)methyl)phenylamino)-5-(3-(3,3-dimethylureido)piperidin-1-yl)pyrazine-2-carboxamide], the 50% inhibitory concentration (IC50) by setting is: (Btk (IC50)) 10 to 100 nM; under setting [1], 10 to 100 nM. Regarding `CS(=O)(=O)N[C@@H]1CCCN(c2cnc(C(N)=O)c(Nc3ccc(C4CCN(C5CCCC5)CC4)cc3)n2)C1` [Example 300, (R)-3-(4-(1-cyclopentylpiperidin-4-yl)phenylamino)-5-(3-(methylsulfonamido)piperidin-1-yl)pyrazine-2-carboxamide], the IC50 reads like this: (Btk (IC50)) 10 to 100 nM; under setting [1], 10 to 100 nM. On to `C[C@@H]1[C@H](NC(=O)N(C)C)CCCN1c1cnc(C(N)=O)c(Nc2ccc(C3(C)CCN(C4CC4)CC3)cc2)n1` [Example 247, 3-(4-(1-cyclopropyl-4-methylpiperidin-4-yl)phenylamino)-5-((2R,3R)-3-(3,3-dimethylureido)-2-methylpiperidin-1-yl)pyrazine-2-carboxamide], for which the IC50 under setting [1] is below 10 nM and the half-maximal inhibitory concentration (IC50) (read-out: Btk (IC50)) was below 10 nM.
